Data: patent publication US20030113330A1, “Methods for treating pulmonary fibrosis” (priority 1999, published 2003)
Entries after “also recorded” stand apart in the source; their conditions may differ.

Experiments:
[1] = test system: primary rat alveolar epithelial cells; assay: Apoptosis of rat AEC induced by human lung fibroblast-conditioned media; format: cell-based; conditions: saralasin 50 ug/ml, DEVD-fmk 60 uM, anti-ANGII IgG 1 ug/ml
Excerpt: Fibroblast Isolation, Culture and Preparation of Conditioned Media. Primary human lung fibroblasts were isolated at the National Institute of Respiratory Diseases, Mexico. […] Of these, “fibrotic” lung fibroblast strains (HIPF-X, where X=patient number) were derived from patients suffering from either of two different types of interstitial lung disease (ILD): Idiopathic Pulmonary Fibrosis (IPF) and Chronic Hypersensitivity Pneumonitis (CHP). In both diseases, patients had clinical, functional and radiologic features which fulfill the diagnostic criteria for an ILD. […] Briefly, all patients had progressive dyspnea, bilateral reticulonodular images on chest roentgenogram, restrictive lung functional impairment with decreased lung volumes and compliance, and hypoxemia at rest that worsened with exercise. […] Patients with IPF had neither antecedents of any occupational or environmental exposure nor other known cause of ILD. […] Biopsies lacked granulomas, vasculitis, microorganisms, and inorganic material by polarized light microscopy.
Control fibroblasts were obtained from individuals having undergone a lobectomy for removal of a primary lung tumor. […] Lung fibroblasts from normal or fibrotic tissue were isolated by trypsin dispersion, and fibroblast strains were established in Dulbecco's modified Eagle's medium (or in Ham's F-12 medium) supplemented with 10% fetal calf serum, 200 U/ml penicillin, and 200 mg/ml streptomycin. […]
Epithelial Cell Culture and Detection of Apoptosis. […] All epithelial cell preparations were greater than 90% pure as determined by acridine orange uptake into lamellar bodies. […] Epithelial cell apoptosis was detected by the assessment, under fluorescence microscopy, of chromatin condensation and nuclear fragmentation within cytokeratin-positive cells after ethanol fixation and staining with propidium iodide. […]
The percentage increase in rat AEC apoptosis was determined by propidium iodide assay of primary alveolar epithelial cells exposed to serum-free conditioned media, see Uhal et al., Am.

[2] = test system: angiotensinogen (ANGEN) mRNA; assay: Quantitative RT-PCR of angiotensinogen mRNA in Fas-activated primary rat AEC; format: cell-based; conditions: Fas ligand
Procedure: RT-PCR. Reverse transcriptase polymerase chain reaction (RT-PCR) assay of angiotensinogen gene products was performed as described in Wang et al., Am. J. Physiol. 276:L885-L889 (1999) in a total reaction volume of 30 μl. Total RNA was isolated by the RNeasy Mini protocol (Qiagen Co., Santa Clarita, Calif.). The reaction was performed for 1 hour at 45 C. followed by 20 cycles of PCR amplification. PCR amplification was performed with 10 ul aliquots of cDNA, equivalent to 1 ug of the starting RNA. The identity of expressed genes was determined by expected size of the PCR product in 1.6% agarose gels.
For RT-PCR of rat-specific gene products, the following primers were used: for angiotensinogen, coding=5′ […] 3′, and noncoding=5′ […] 3′, which yields a PCR product of 226 bp by single-step RT-PCR (Pierzchalski et al., Exp. Cell Res. 234:57-65 (1997)). For β-microglobulin, the primers used were: coding=5′ […] 3′, and noncoding=5′ […] 3′, which yields a product of 249 bp (Katwa et al., Cardiovasc. Res. 29:57-64 (1995)).
To confirm this, total RNA was isolated from human A549 cells or primary rat AEC that were unactivated (CTL) or activated with Fas-ligating CH-11 antibody or purified Fas ligand in the presence or absence of saralasin (SAR). Quantitative RT-PCR was performed with primers specific for human or rat angiotensinogen (ANGEN), β-actin or β-microglobulin (b-MG). […]

## CNCC(=O)N[C@@H](CCCN=C(N)N)C(=O)N[C@H](C(=O)N[C@@H](Cc1ccc(O)cc1)C(=O)N[C@H](C(=O)N[C@@H](Cc1cnc[nH]1)C(=O)N1CCC[C@H]1C(=O)N[C@@H](C)C(=O)O)C(C)C)C(C)C [saralasin]
[1]
  inhibition of apoptosis induced by HIPF-conditioned media: completely abrogated; also recorded: eliminated
[2]
  effect on accumulation of ANGEN mRNA during Fas activation: had no effect
